# System: Mo7e cells which endogenously express c-kit
# Test: Mo7e assay: inhibition of SCF dependent proliferation (MTT)
# Type: cell-based
# Conditions: Table 1; SCF stimulated Mo7e cells, 48 hours, MTT
# Description: The compounds described herein are tested for inhibition of SCF dependent proliferation using Mo7e cells which endogenously express c-kit in a 96 well format. Two-fold serially diluted test compounds (Cmax=10 μM) are evaluated for their antiproliferative activity of Mo7e cells stimulated with human recombinant SCF. After 48 hours of incubation at 37° C., cell viability is measured by using a MTT colorimetric assay from Promega. IC50 values for compounds of the invention are quoted in table 1, supra.
row,Structure (SMILES),IC50 [nM]
1,"Cc1cc2c(cn1)cc(-c1cc(Nc3noc(-c4ccc(C#N)cc4F)n3)ccc1C)c(=O)n2C [Compound A63, 4-(3-{[3-(1,7-dimethyl-2-oxo-1,2-dihydro-1,6-naphthyridin-3-yl)-4-methylphenyl]amino}-1,2,4-oxadiazol-5-yl)-3-fluorobenzonitrile]",123
2,"Cc1cc2c(cn1)cc(-c1cc(Nc3noc(C4(C)CC4)n3)ccc1C)c(=O)n2C [Compound A34, 1,7-dimethyl-3-(2-methyl-5-(5-(1-methylcyclopropyl)-1,2,4-oxadiazol-3-ylamino)phenyl)-1,6-naphthyridin-2(1H)-one]",83
3,"Cc1cc2c(cn1)cc(-c1cc(Nc3noc(-c4ccccc4Cl)n3)ccc1C)c(=O)n2C [Compound A8, 3-(5-{[5-(2-chlorophenyl)-1,2,4-oxadiazol-3-yl]amino}-2-methylphenyl)-1,7-dimethyl-1,2-dihydro-1,6-naphthyridin-2-one]",158
4,Cc1cc2c(cn1)cc(-c1cc(Nc3cc(-c4ccc(Br)cn4)on3)ccc1C)c(=O)n2C [Compound D6],229
5,"Cc1cncc(-c2nc(Nc3ccc(C)c(-c4cc5cnc(C)cc5n(C)c4=O)c3)no2)c1 [Compound A53, 1,7-dimethyl-3-(2-methyl-5-{[5-(5-methylpyridin-3-yl)-1,2,4-oxadiazol-3-yl]amino}phenyl)-1,2-dihydro-1,6-naphthyridin-2-one]",427
6,"Cc1ccc(-c2nc(Nc3ccc(C)c(-c4cc5cnc(C)cc5n(C)c4=O)c3)no2)cc1 [Compound A13, 1,7-dimethyl-3-(2-methyl-5-{[5-(4-methylphenyl)-1,2,4-oxadiazol-3-yl]amino}phenyl)-1,2-dihydro-1,6-naphthyridin-2-one]",13
7,"Cc1cc2c(cn1)cc(-c1cc(Nc3noc(-c4ccccn4)n3)ccc1C)c(=O)n2C [Compound A52, 1,7-dimethyl-3-(2-methyl-5-(5-(pyridin-2-yl)-1,2,4-oxadiazol-3-ylamino)phenyl)-1,6-naphthyridin-2(1H)-one]",68
8,"Cc1ccc(-c2nnc(Nc3ccc(C)c(-c4cc5cnc(C)cc5n(C)c4=O)c3)[nH]2)cc1 [Compound C4, 1,7-dimethyl-3-(2-methyl-5-{[5-(4-methylphenyl)-4H-1,2,4-triazol-3-yl]amino}phenyl)-1,2-dihydro-1,6-naphthyridin-2-one]",288
9,"CCC(CC)c1nc(Nc2ccc(C)c(-c3cc4cnc(C)cc4n(C)c3=O)c2)no1 [Compound A31, 1,7-dimethyl-3-(2-methyl-5-{[5-(pentan-3-yl)-1,2,4-oxadiazol-3-yl]amino}phenyl)-1,2-dihydro-1,6-naphthyridin-2-one]",105
10,"Cc1cc2c(cn1)cc(-c1cc(Nc3noc(-c4ccc(Cl)cc4Cl)n3)ccc1C)c(=O)n2C [Compound A82, 3-(5-{[5-(2,4-dichlorophenyl)-1,2,4-oxadiazol-3-yl]amino}-2-methylphenyl)-1,7-dimethyl-1,2-dihydro-1,6-naphthyridin-2-one]",262
11,"Cc1cc2c(cn1)cc(-c1cc(Nc3noc(-c4ccc(C(C)(F)F)nc4)n3)ccc1C)c(=O)n2C [Compound A88, 3-[5-({5-[6-(1,1-difluoroethyl)pyridin-3-yl]-1,2,4-oxadiazol-3-yl}amino)-2-methylphenyl]-1,7-dimethyl-1,2-dihydro-1,6-naphthyridin-2-one]",259
12,"Cc1cc2c(cn1)cc(-c1cc(Nc3noc(C4CCCC4)n3)ccc1C)c(=O)n2C [Compound A15, 3-{5-[(5-cyclopentyl-1,2,4-oxadiazol-3-yl)amino]-2-methylphenyl}-1,7-dimethyl-1,2-dihydro-1,6-naphthyridin-2-one]",28
13,"Cc1cc2c(cn1)cc(-c1cc(Nc3noc(C(C)(F)F)n3)ccc1C)c(=O)n2C [Compound A54, 3-(5-(5-(1,1-difluoroethyl)-1,2,4-oxadiazol-3-ylamino)-2-methylphenyl)-1,7-dimethyl-1,6-naphthyridin-2(1H)-one]",148
14,"Cc1cc2c(cn1)cc(-c1cc(Nc3noc(C(C)C)n3)ccc1C)c(=O)n2C [Compound A6, 3-(5-(5-isopropyl-1,2,4-oxadiazol-3-ylamino)-2-methylphenyl)-1,7-dimethyl-1,6-naphthyridin-2(1H)-one]",34
15,"Cc1cc2c(cn1)cc(-c1cc(Nc3noc(C4CCC(O)C4)n3)ccc1C)c(=O)n2C (centres unmarked) [Compound A73, 3-(5-(5-(3-hydroxycyclopentyl)-1,2,4-oxadiazol-3-ylamino)-2-methylphenyl)-1,7-dimethyl-1,6-naphthyridin-2(1H)-one]",178
16,"Cc1cc2c(cn1)cc(-c1cc(Nc3noc(C4CCC4)n3)ccc1C)c(=O)n2C [Compound A11, 3-{5-[(5-cyclobutyl-1,2,4-oxadiazol-3-yl)amino]-2-methylphenyl}-1,7-dimethyl-1,2-dihydro-1,6-naphthyridin-2-one]",12

row,Structure (SMILES),IC50 [nM]
1,"Cc1cc2c(cn1)cc(-c1cc(Nc3noc(-c4cccnc4F)n3)ccc1C)c(=O)n2C [Compound A91, 3-(5-{[5-(2-fluoropyridin-3-yl)-1,2,4-oxadiazol-3-yl]amino}-2-methylphenyl)-1,7-dimethyl-1,2-dihydro-1,6-naphthyridin-2-one]",244
2,"Cc1cc2c(cn1)cc(-c1cc(Nc3noc(-c4ccncc4)n3)ccc1C)c(=O)n2C [Compound A50, 1,7-dimethyl-3-(2-methyl-5-{[5-(pyridin-4-yl)-1,2,4-oxadiazol-3-yl]amino}phenyl)-1,2-dihydro-1,6-naphthyridin-2-one]",271
3,"Cc1cc2c(cn1)cc(-c1cc(Nc3noc([C@H]4C[C@@](C)(O)C4)n3)ccc1C)c(=O)n2C [Compound A101, 3-(5-{[5-(3-hydroxy-3-methylcyclobutyl)-1,2,4-oxadiazol-3-yl]amino}-2-methylphenyl)-1,7-dimethyl-1,2-dihydro-1,6-naphthyridin-2-one]",205
4,"Cc1cc2c(cn1)cc(-c1cc(Nc3noc(-c4ccc(C#N)cc4)n3)ccc1C)c(=O)n2C [Compound A37, 4-(3-{[3-(1,7-dimethyl-2-oxo-1,2-dihydro-1,6-naphthyridin-3-yl)-4-methylphenyl]amino}-1,2,4-oxadiazol-5-yl)benzonitrile]",57
5,"CCc1cc2c(cn1)cc(-c1cc(Nc3noc(C(C)C)n3)ccc1C)c(=O)n2C [Compound A104, 7-ethyl-3-(5-(5-isopropyl-1,2,4-oxadiazol-3-ylamino)-2-methylphenyl)-1-methyl-1,6-naphthyridin-2(1H)-one]",88
6,"Cc1cc2c(cn1)cc(-c1cc(Nc3noc(C(C)(C)O)n3)ccc1C)c(=O)n2C [Compound A32, 3-(5-(5-(2-hydroxypropan-2-yl)-1,2,4-oxadiazol-3-ylamino)-2-methylphenyl)-1,7-dimethyl-1,6-naphthyridin-2(1H)-one]",172
7,"Cc1cc2c(cn1)cc(-c1cc(Nc3noc(C4CCOC4)n3)ccc1C)c(=O)n2C (centres unmarked) [Compound A78, 1,7-dimethyl-3-(2-methyl-5-{[5-(oxolan-3-yl)-1,2,4-oxadiazol-3-yl]amino}phenyl)-1,2-dihydro-1,6-naphthyridin-2-one]",120
8,"Cc1cc2c(cn1)cc(-c1cc(Nc3noc(-c4ccc(CN)cc4)n3)ccc1C)c(=O)n2C [Compound A90, 3-[5-({5-[4-(aminomethyl)phenyl]-1,2,4-oxadiazol-3-yl}amino)-2-methylphenyl]-1,7-dimethyl-1,2-dihydro-1,6-naphthyridin-2-one]",434
9,"CCC(C)c1nc(Nc2ccc(C)c(-c3cc4cnc(C)cc4n(C)c3=O)c2)no1 (centres unmarked) [Compound A29, 3-(5-{[5-(butan-2-yl)-1,2,4-oxadiazol-3-yl]amino}-2-methylphenyl)-1,7-dimethyl-1,2-dihydro-1,6-naphthyridin-2-one]",58
10,"Cc1cc2c(cn1)cc(-c1cc(Nc3noc(-c4ccc(F)cn4)n3)ccc1C)c(=O)n2C [Compound A25, 3-(5-{[5-(5-fluoropyridin-2-yl)-1,2,4-oxadiazol-3-yl]amino}-2-methylphenyl)-1,7-dimethyl-1,2-dihydro-1,6-naphthyridin-2-one]",82
11,"Cc1cc2c(cn1)cc(-c1cc(Nc3noc(-c4ccccc4C)n3)ccc1C)c(=O)n2C [Compound A16, 1,7-dimethyl-3-(2-methyl-5-{[5-(2-methylphenyl)-1,2,4-oxadiazol-3-yl]amino}phenyl)-1,2-dihydro-1,6-naphthyridin-2-one]",114
12,"Cc1cc2c(cn1)cc(-c1cc(Nc3noc(CC(C)C)n3)ccc1C)c(=O)n2C [Compound A68, 3-(5-(5-isobutyl-1,2,4-oxadiazol-3-ylamino)-2-methylphenyl)-1,7-dimethyl-1,6-naphthyridin-2(1H)-one]",128
13,"Cc1cnc(-c2nc(Nc3ccc(C)c(-c4cc5cnc(C)cc5n(C)c4=O)c3)no2)cn1 [Compound A71, 1,7-dimethyl-3-(2-methyl-5-{[5-(5-methylpyrazin-2-yl)-1,2,4-oxadiazol-3-yl]amino}phenyl)-1,2-dihydro-1,6-naphthyridin-2-one]",424
14,"Cc1cc2c(cn1)cc(-c1cc(Nc3noc(-c4nccn4C)n3)ccc1C)c(=O)n2C [Compound A22, 1,7-dimethyl-3-(2-methyl-5-{[5-(1-methyl-1H-imidazol-2-yl)-1,2,4-oxadiazol-3-yl]amino}phenyl)-1,2-dihydro-1,6-naphthyridin-2-one]",360
15,"Cc1cc2c(cn1)cc(-c1cc(Nc3nnc(C4CCCCC4)o3)ccc1C)c(=O)n2C [Compound B10, 3-{5-[(5-cyclohexyl-1,3,4-oxadiazol-2-yl)amino]-2-methylphenyl}-1,7-dimethyl-1,2-dihydro-1,6-naphthyridin-2-one]",378
16,"Cc1cc2c(cn1)cc(-c1cc(Nc3noc(-c4ccc(Cl)cn4)n3)ccc1C)c(=O)n2C [Compound A26, 3-(5-{[5-(5-chloropyridin-2-yl)-1,2,4-oxadiazol-3-yl]amino}-2-methylphenyl)-1,7-dimethyl-1,2-dihydro-1,6-naphthyridin-2-one]",27

# Reference: patent publication US8278452B2, “Heterocyclic compounds and compositions as c-kit and PDGFR kinase inhibitors” (IRM LLC, priority 2008, dated 2012)
